Laboratory results as given in US10676501B2, “Hydrogel materials incorporating eluting ceragenin compound” (BRIGHAM YOUNG UNIVERSITY, priority 2011, dated 2020).
Converted amounts (≈) assume the structure as drawn.

What was measured:
[1] = Elution of CSA-138 from contact lenses without bacteria, quantified by scintillation counting; format: physicochemical
Protocol: To decrease the detection limit for CSA-138, we prepared a radiolabeled version of CSA-138 (CSA-138T2), incorporated it into contact lenses, and quantified its elution from lenses using scintillation counting.
Lenses containing 1% CSA-138 were stored in 0.5 mL phosphate buffered saline (PBS) prior to testing. One set of lenses was autoclaved for 45 min before elution studies were performed. For elution studies, lenses were suspended in 2 ml aliquots of PBS, 10% TSB growth medium, 10% TSB growth medium containing 10^6 CFU of Staphylococcus aureus, or 10% TSB growth medium containing 10^6 CFU of Pseudomonas aeruginosa. Corresponding aliquots were exchanged every 24 h, including bacterial inocula. Samples were removed every 24 h and analyzed for the presence of CSA-138 using scintillation counting. A standard curve was generated to correlate counts per minute to concentration of CSA-138. All experiments were performed in triplicate.

[2] = tested on: S. aureus; details: elution from lenses, inocula 10^6 CFU, consecutive days; cited from earlier work
[3] = Elution of CSA-138 from contact lens hydrogel, quantified by LC/MS; format: physicochemical; details: lenses with CSA-138 incorporated at 1%; LC/MS detection limit about 2 μg/ml
Protocol: To better understand the mechanism by which ceragenin compounds can be eluted from a hydrogel to prevent bacterial colonization, we determined the rate at which CSA-138 elutes from a hydrogel suitable for use in contact lenses. To quantify the amount of ceragenin eluting from the hydrogel, we used LC/MS using a mass-labeled internal standard. However, this method only gave detection limits of about 2 μg/ml, and we were able to effectively kill bacteria at constant elution rates below the detection limit.

[4] = tested on: P. aeruginosa; details: elution from lenses, inocula 10^6 CFU; cited from earlier work
[5] = tested on: S. aureus; test: MIC against S. aureus; format: cell-based
[6] = tested on: P. aeruginosa; test: MIC against P. aeruginosa; format: cell-based

Structure (SMILES) | initial amount of material that eluted ([1]; lenses autoclaved 45 min before the study, compared with non-autoclaved (FIG. 4)) | elution on the first day ([1]; lenses containing 1% CSA-138 in 2 ml PBS, day 1 (FIG. 3)) | duration for which colonization is prevented [2] [days] | time until elution fell below detection limits [3] | duration for which colonization is prevented [4] [days] | MIC [5] [µg/mL] | MIC [6] [µg/mL] | elution profile in 10% TSB in PBS ([1]; 10% TSB in PBS, compared with PBS (FIG. 5))
CCCCCCCCCCCCCNCCC[C@@H](C)[C@H]1CC[C@H]2[C@@H]3[C@H](OCCCN)C[C@@H]4C[C@H](OCCCN)CC[C@]4(C)[C@H]3C[C@H](OCCCN)[C@]12C [CSA-138] | decreased somewhat | about 2.2 μg/ml | 30 | five | 19 | 0.5 (≈ 0.669 µM) | 1.0 (≈ 1.34 µM) | 
CCCCCCCCNCCC[C@@H](C)[C@H]1CC[C@H]2[C@@H]3[C@H](OCCCN)C[C@@H]4C[C@H](OCCCN)CC[C@]4(C)[C@H]3C[C@H](OCCCN)[C@]12C [CSA-13] |  |  |  |  |  |  |  | elution decreased
